# Source: patent US20230015949A1, “NEISSERIA TREATMENT USING CANNABINOIDS” (priority 2019, published 2023)
# Read-outs that look alike come from different tables or passages of the source.
# Columns and labels:
# [1] = system: Staphylococcus aureus ATCC 29213; settings: S. aureus ATCC 29213, CLSI QC ranges shown in parentheses, cited from earlier work
# [2] = system: Neisseria gonorrhoeae; experiment: Broth microdilution MIC assay, 30 isolates (Example 2); format: cell-based
# Method: In this study, the in vitro spectrum of activity of CBD was determined against 30 isolates comprised of reference strains from the WHO, isolates from the CDC antibiotic resistance bank, and clinical isolates from the Micromyx (MMX) repository, with different resistance phenotypes. Assays were conducted following guidelines recommended by the Clinical and Laboratory Standards Institute (CLSI; 1, 2) with the exception that broth microdilution was used instead of agar dilution.
# Stock solutions of all compounds were prepared on the day of testing using solvents recommended by CLSI. Stock solutions of all compounds were made at 101× the final testing concentration. CBD was supplied by Cerilliant (Round Rock, Tex.) as a 1 mg/mL methanolic solution which was stored at −20° C. after receipt. Prior to testing, using a 5 mL aliquot of the CBD methanolic solution, the methanol was dried off and the residual CBD was resuspended in 774 μL DMSO resulting in a 6.464 mg/mL solution.
# The test organisms evaluated in this study consisted of Neisseria gonorrhoeae isolates from the Micromyx repository and reference isolates from the American Type Culture Collection (ATCC; Manassas, Va.), Centers for Disease Control and Prevention (CDC; Atlanta, Ga.) or the National Collection of Type Cultures (NCTC; Public Health England, Salisbury, UK). Upon initial receipt at Micromyx, the organisms were sub-cultured onto an appropriate agar medium.
# (§1) Following incubation, colonies were harvested from these plates and cell suspensions prepared and frozen at −80° C. with a cryoprotectant. Prior to testing, N. gonorrhoeae isolates were streaked onto Chocolate Agar [Becton Dickinson, (BD), Sparks, Md.; Lot No. 922807]; Staphylococcus aureus ATCC 29213 tested for quality control (QC) purposes was streaked onto Trypticase Soy Agar with 5% Sheep Blood (TSA II; BD; Lot No. 9219399).
# For N. gonorrhoeae, a modified medium described by the ATCC as capable of supporting the growth of N. gonorrhoeae (Neisseria peptone medium) was used for the broth microdilution MIC assay. This medium contained 15 g Oxoid Special Peptone (Lot No. 1280296; Oxoid, Hampshire, UK), 1 g corn starch (Lot No. AD-13344-14; Ward's Science; Rochester, N.Y.), 5 g NaCl (Lot No. 57897; VWR, Radnor, Pa.), 4 g K2HPO4 (Lot No. SLBT7061; Sigma), and 1 g KH2PO4 (Lot No. SLBC1921V; Sigma). After autoclaving, the medium was centrifuged at 5,000×g for 10 min, the supernatant was passed through a 0.45 μm filter, and IsoVitaleX supplement (Lot No. 8323954; BD) was added at 1% (v/v).
# (§2) MIC values were determined using a broth microdilution procedure described by CLSI (1, 2). Automated liquid handlers (Multidrop 384, Labsystems, Helsinki, Finland; Biomek 2000 and Biomek FX, Beckman Coulter, Fullerton Calif.) were used to conduct serial dilutions and liquid transfers.
# (§3) To prepare the drug mother plates, which would provide the serial drug dilutions for the replicate daughter plates, the wells of columns 2 through 12 of standard 96-well microdilution plates (Costar 3795) were filled with 150 μl of the designated diluent for each row of drug. The test articles and comparator compounds (300 μl at 100× the highest concentration to be tested) were dispensed into the appropriate wells in column 1. The Biomek 2000 was then used to make 2-fold serial dilutions in the mother plates from column 1 through column 11. The wells of column 12 contained no drug and served as the organism growth control wells for the assay.
# (§4) The daughter plates were loaded with 190 μL per well of the appropriate test medium for the tested organism using the Multidrop 384. The daughter plates were completed on the Biomek FX instrument which transferred 2 μL of drug solution from each well of a mother plate to the corresponding well of each daughter plate in a single step. Daughter plates for the testing of anaerobes were allowed to pre-reduce in the Bactron II anaerobe chamber for 2 hr prior to inoculation.
# [3] = system: Staphylococcus aureus ATCC 29213; experiment: Broth microdilution MIC assay, quality control strain (Example 2); format: cell-based; settings: ATCC29213, S. aureus ATCC 29213 (QC), CAMHB
# Method: as §1
# Cation-adjusted Mueller Hinton broth (CAMHB; BD; Lot No. 9019592) was used for MIC testing of S. aureus ATCC 29213 for QC purposes.
# as §2, §3, §4
# A standardized inoculum of each test organism was prepared per CLSI methods (1, 2). The inoculum for each organism was dispensed into sterile reservoirs divided by length (Beckman Coulter), and the Biomek 2000 was used to inoculate the plates. Daughter plates were placed on the Biomek 2000 work surface in reverse orientation so that inoculation took place from low to high drug concentration. Anaerobic organisms were inoculated by hand in the Bactron II anaerobic chamber. Bacterial plates were then inoculated with 10 μL of the inoculum resulting in a final cell density of approximately 5×10^5 CFU/mL.
# Plates were stacked 3 to 4 high, covered with a lid on the top plate and placed in plastic bags. […] The MIC was read and recorded as the lowest concentration of drug that inhibited visible growth of the organism.
# [4] = 30 isolates of N. gonorrhoeae, broth microdilution
# [5] = 30 isolates of N. gonorrhoeae, broth microdilution, MIC distribution
# [6] = 30 isolates, broth dilution assay, MIC distribution (Table 6)
smiles,measurement,setting,value
"CO/N=C(\C(=O)N[C@@H]1C(=O)N2C(C(=O)O)=C(CSc3nc(=O)c(=O)[nH]n3C)CS[C@H]12)c1csc(N)n1 [CRO, ceftriaxone]",CLSI QC range of MIC,[1],1 to 8 µg/mL
same,CLSI QC range of MIC,[1]; listed as Ceftriaxone,(1-8)^1 μg/mL
same,MIC50,[2]; [4],≤0.008 µg/mL
same,MIC Range,[2]; [4],≤0.008 − 1 μg/mL
same,Number of isolates at MIC value 0.015 μg/mL,[2]; [5],5
same,Number of isolates at MIC value 0.03 μg/mL,[2]; [5],2
same,Number of isolates at MIC value 0.06 μg/mL,[2]; [5],1
same,Number of isolates at MIC value 0.5 μg/mL,[2]; [5],1
same,Number of isolates at MIC value 1 μg/mL,[2]; [5],1
same,Number of isolates at MIC value 2 μg/mL,[2]; [5],0
same,Number of isolates at MIC value 4 μg/mL,[2]; [5],0
same,Number of isolates at MIC value 8 μg/mL,[2]; [5],0
same,Number of isolates at MIC value <0.008 μg/mL,[2]; [5],20
same,Number of isolates at MIC value >8 μg/mL,[2]; [5],0
same,Number of isolates at MIC value […],[2]; [5],0
same,MIC Range,"[2]; 30 isolates of N. gonorrhoeae, broth microdilution, listed as ceftriaxone",≤0.008 to 1 µg/mL
same,Number of isolates at MIC 0.08 μg mL^−1,[2]; [6],0
same,Number of isolates at MIC ≤0.004 μg mL^−1,[2]; [6],20
same,MIC,"[2]; N. gonorrhoeae ATCC 49226 (QC), broth microdilution",£0.008 μg/mL
same,MIC,"[2]; Neisseria gonorrhoeae, ATCC49226, N. gonorrhoeae ATCC 49226 (QC), broth microdilution, read-out: MIC",≤ 0.008 µg/mL
same,MIC,"[2]; Neisseria gonorrhoeae, N. gonorrhoeae CDC 0165 (CIP-R, AZI MIC 1), broth microdilution, read-out: MIC",0.015 µg/mL
same,MIC,"[2]; Neisseria gonorrhoeae, N. gonorrhoeae CDC 0166 (CIP-R, AZI MIC 1), broth microdilution, read-out: MIC",0.015 µg/mL
same,MIC,"[2]; Neisseria gonorrhoeae, N. gonorrhoeae CDC 0167 (CIP-S, AZI MIC 8), broth microdilution, read-out: MIC",≤ 0.008 µg/mL
same,MIC,"[2]; Neisseria gonorrhoeae, N. gonorrhoeae CDC 0172 (CIP-R, AZI MIC 0.5), broth microdilution, read-out: MIC",≤ 0.008 µg/mL
same,MIC,"[2]; Neisseria gonorrhoeae, N. gonorrhoeae CDC 0175 (CIP-S, AZI MIC 16), broth microdilution, read-out: MIC",≤ 0.008 µg/mL
same,MIC,"[2]; Neisseria gonorrhoeae, N. gonorrhoeae CDC 0177 (CIP-S, AZI MIC 2), broth microdilution, read-out: MIC",≤ 0.008 µg/mL
same,MIC,"[2]; Neisseria gonorrhoeae, N. gonorrhoeae CDC 0181 (CIP-S, AZI MIC 256), broth microdilution, read-out: MIC",≤ 0.008 µg/mL
same,MIC,"[2]; Neisseria gonorrhoeae, N. gonorrhoeae CDC 0194 (CRO-NS, CIP-S, AZI MIC 0.5), broth microdilution, read-out: MIC",0.03 µg/mL
same,MIC,"[2]; Neisseria gonorrhoeae, N. gonorrhoeae MMX 6921 (CIP-R), broth microdilution, read-out: MIC",≤ 0.008 µg/mL
same,MIC,"[2]; Neisseria gonorrhoeae, N. gonorrhoeae MMX 6938 (CIP-S), broth microdilution, read-out: MIC",≤ 0.008 µg/mL
same,MIC,"[2]; Neisseria gonorrhoeae, N. gonorrhoeae MMX 10409 (CIP-R), broth microdilution, read-out: MIC",0.015 µg/mL
same,MIC,"[2]; Neisseria gonorrhoeae, N. gonorrhoeae MMX 10410 (CIP-S), broth microdilution, read-out: MIC",≤ 0.008 µg/mL
same,MIC,"[2]; Neisseria gonorrhoeae, N. gonorrhoeae MMX 10447 (CIP-S), broth microdilution, read-out: MIC",≤ 0.008 µg/mL
same,MIC,"[2]; Neisseria gonorrhoeae, N. gonorrhoeae MMX 10450 (CIP-S), broth microdilution, read-out: MIC",≤ 0.008 µg/mL
same,MIC,"[2]; Neisseria gonorrhoeae, N. gonorrhoeae MMX 10452 (CIP-R), broth microdilution, read-out: MIC",≤ 0.008 µg/mL
same,MIC,"[2]; Neisseria gonorrhoeae, N. gonorrhoeae MMX 10454 (CIP-R), broth microdilution, read-out: MIC",0.015 µg/mL
same,MIC,"[2]; Neisseria gonorrhoeae, NCTC13477, N. gonorrhoeae NCTC 13477 (WHO F; CIP-S, AZI MIC […]), broth microdilution, read-out: MIC",≤ 0.008 µg/mL
same,MIC,"[2]; Neisseria gonorrhoeae, NCTC13478, N. gonorrhoeae NCTC 13478 (WHO G; CIP-I, AZI MIC […]), broth microdilution, read-out: MIC",≤ 0.008 µg/mL
same,MIC,"[2]; Neisseria gonorrhoeae, NCTC13479, N. gonorrhoeae NCTC 13479 (WHO K; CIP-R, AZI MIC […]), broth microdilution, read-out: MIC",0.03 µg/mL
same,MIC,"[2]; Neisseria gonorrhoeae, NCTC13480, N. gonorrhoeae NCTC 13480 (WHO L; CIP-R, AZI MIC 0.5), broth microdilution, read-out: MIC",0.06 µg/mL
same,MIC,"[2]; Neisseria gonorrhoeae, NCTC13481, N. gonorrhoeae NCTC 13481 (WHO M; CIP-R, AZI MIC […]), broth microdilution, read-out: MIC",≤ 0.008 µg/mL
same,MIC,"[2]; Neisseria gonorrhoeae, NCTC13482, N. gonorrhoeae NCTC 13482 (WHO N; CIP-R, AZI MIC […]), broth microdilution, read-out: MIC",≤ 0.008 µg/mL
same,MIC,"[2]; Neisseria gonorrhoeae, NCTC13483, N. gonorrhoeae NCTC 13483 (WHO O; CIP-S, AZI MIC […]), broth microdilution, read-out: MIC",≤ 0.008 µg/mL
same,MIC,"[2]; Neisseria gonorrhoeae, NCTC13484, N. gonorrhoeae NCTC 13484 (WHO P; CIP-S, AZI MIC 4), broth microdilution, read-out: MIC",≤ 0.008 µg/mL
same,MIC,"[2]; Neisseria gonorrhoeae, NCTC13817, N. gonorrhoeae NCTC 13817 (WHO U; CIP-S, AZI MIC 4), broth microdilution, read-out: MIC",≤ 0.008 µg/mL
same,MIC,"[2]; Neisseria gonorrhoeae, NCTC13818, N. gonorrhoeae NCTC 13818 (WHO V; CIP-R, AZI MIC >256), broth microdilution, read-out: MIC",≤ 0.008 µg/mL
same,MIC,"[2]; Neisseria gonorrhoeae, NCTC13819, N. gonorrhoeae NCTC 13819 (WHO W; CIP-R, AZI MIC 0.5), broth microdilution, read-out: MIC",0.015 µg/mL
same,MIC,"[2]; Neisseria gonorrhoeae, NCTC13820, N. gonorrhoeae NCTC 13820 (WHO X; CRO-NS, CIP-R, AZI MIC 0.5), broth microdilution, read-out: MIC",1 µg/mL
same,MIC,"[2]; Neisseria gonorrhoeae, NCTC13821, N. gonorrhoeae NCTC 13821 (WHO Y; CIP-R, AZI MIC 1), broth microdilution, read-out: MIC",0.5 µg/mL
same,MIC50,"[2]; Neisseria gonorrhoeae, 30 isolates of N. gonorrhoeae, broth microdilution, read-out: MIC50",≤ 0.008 µg/mL
same,MIC90,"[2]; Neisseria gonorrhoeae, 30 isolates of N. gonorrhoeae, broth microdilution, read-out: MIC90",0.03 µg/mL
same,MIC,"[2]; Neisseria gonorrhoeae, 30 isolates of N. gonorrhoeae, broth microdilution, read-out: MIC Mode",≤ 0.008 µg/mL
same,MIC,[3],2 µg/mL
